Patent publication US20080102476A1, “Analyzing Histamine H4 Receptor-Mediated Effects In Whole Blood” (priority 2003, published 2008)
Like-named read-outs stand apart in the source and are kept apart here.

Key:
human eosinophils [1] = assay: Eosinophil shape change in human PMNL by flow cytometry (GAFS assay); format: cell-based; conditions: for IC50: Homo sapiens, Eosinophil, 1 μM histamine, FIG. 4B; for effect on histamine-induced eosinophil shape change: antagonist 10 μM, 1 μM histamine 10 min; for agonist effect on eosinophil shape change: FIG. 4C; for EC50: FIG. 3D
Procedure: PMNL were prepared as described above and cells were resuspended in assay buffer (PBS containing 10 mM Ca^2+ and Mg^2+, 10 mM HEPES, 10 mM glucose, and 0.1% BSA, pH 7.2-7.4). Aliquots of cells (5×10^5 PMNL in 80 μl assay buffer) were pretreated with histamine receptor analogues (diphenhydramine, ranitidine, thioperamide, Compound A or H3 receptor antagonist) for 10 min at room temperature before addition of histamine or chemokines in 1.2-ml polypropylene cluster tubes (Costar, Cambridge, Mass.) in a final volume of 100 μl. The tubes were placed in a 37° C. water bath for 10 min (or as indicated), after which they were transferred to an ice-water bath, and 250 μl of ice-cold fixative (2% paraformaldehyde in PBS) was added to terminate the reaction and to maintain the cell shape change. […] Cell shape change was monitored in forward scatter signals. To identify eosinophils and neutrophils in PMNL, cells were stained on ice for 30 min with saturating concentrations of FITC-conjugated anti-CCR3 or anti-CD16 antibodies, which are specific for eosinophils or neutrophils, respectively. Samples after antibody staining were analyzed in flow cytometry.

human eosinophils [2] = assay: Cell surface expression of adhesion molecules on eosinophils by flow cytometry; format: cell-based; conditions: for effect on histamine-induced up-regulation of CD11b/CD18 and CD54 expression: antagonist 10 μM
Procedure: Purified eosinophils were used to study cell surface expression of adhesion molecules. Eosinophils were resuspended in PBS containing 10 mM Ca^2+ and Mg^2+, 10 mM HEPES, 10 mM glucose, and 0.1% BSA, pH 7.2-7.4. Aliquots of cells (5×10^5 PMNL) were pretreated with histamine receptor analogues (as described above) for 10 min before addition of histamine or chemokines in 1.2-ml polypropylene cluster tubes (Costar, Cambridge, Mass.) in a final volume of 100 μl. The tubes were placed in a 37° C. water bath for 10 min (or as indicated), after which they were transferred to an ice-water bath, and 250 μl of ice-cold fixative (0.5% paraformaldehyde in PBS) was added. Samples were then incubated on ice for 30 min with saturating concentration of either FITC or phycoerytherine-conjugated anti-CD11a, anti-CD11b or anti-CD54 antibodies, washed, and then analyzed by flow cytometry.

[3] = test system: purified human eosinophils; assay: In vitro eosinophil chemotaxis assay (Transwell); format: cell-based; conditions: for IC50: 1 μM histamine in lower chamber, read-out: IC50 in blocking 1 μM histamine-induced eosinophil chemotaxis; for effect on histamine-induced eosinophil chemotaxis: antagonist 10 μM in both chambers; for EC50: 2 h
Procedure: Transwells (Costar, Cambridge, Mass.) with 5 μm pore size were coated with 100 μl of 100 ng/ml human fibronectin (Sigma) for 2 h at room temperature. After removal of excess fibronectin, 600 μl of RPMI-1640 medium containing 0.5% BSA and different concentrations of histamine (0.01-100 μM) was added to the bottom chamber, Eosinophils (2×10^5/well) were added to the top chamber. Histamine receptor analogues (diphenhydramine, ranitidine, thioperamide, Compound A or Compound B) were added to both the top and bottom chambers to a final concentration of 10 μM or at other concentration as stated in figure legends. The plates were incubated for 2 h at 37° C. and the number of cells migrated to the bottom chamber was counted for 1 min using flow cytometer.

[4] = test system: eosinophils in human whole blood; assay: Whole blood eosinophil shape change GAFS assay (Example 1A); format: cell-based; conditions: for agonist effect on eosinophil shape change in whole blood: FIGS. 9A and 9B
Procedure: Starting materials were obtained as described in the experiments above. Human whole blood samples were used to study eosinophil shape change response. Human blood samples collected from healthy donors were treated with 3.8% tri-sodium citrate as anti-coagulator (or other anti-coagulators) and centrifuges at 300 rpm. The samples were used for experiments within 1 hour. Aliquots of 80 μl whole blood were pretreated with histamine receptor analogues (such as H1 receptor antagonist diphenhydramine, H2 antagonist ranitidine, H4 receptor antagonists thioperamide and Compound A, and H3 receptor antagonist Compound B) for 10 minutes before addition of histamine or chemokines in 1.2-ml polypropylene cluster tubes (Costar, Cambridge, Mass.) in a final volume of 100 μl. The tubes were placed in a 37° C. water bath for 10 min, after which they were transferred to an ice-water bath, and 250 μl of ice-cold fixative (2% paraformaldehyde in PBS or other fixatives) was added to terminate the reaction and to maintain the cell shape change. Red cells were lysed with 3 ml Qiagen lysis solution (Qiagen, Valencia, Calif.) for 10 minutes at 4° C. Leukocytes were recovered by centrifugation at 2000 rpm for 5 minutes, washed once with either PBS containing 10 mM Ca^2+ and Mg^2+, 10 mM HEPES, 10 mM glucose, and 0.1% BSA (for FIGS. 10 and 11) or PBS containing 0.5% BSA and 2 mM EDTA (for other figures), and then resuspended in the same buffer. The cell shape change was analyzed on a FACScan flow cytometer (Becton Dickinson, Mountain View, Calif.). Eosinophils were gated based on their high autofluorescence relative to neutrophils and shape change was monitored in forward scatter signals. Data were acquired for 1500 high-fluorescence eosinophil events. The results are expressed as the percentage increase in FSC compared to unstimulated cells. Results obtained are provided in the Tables I and II, below, which also correspond to FIG. 7 and FIG. 8, respectively.

[5] = test system: eosinophils in human whole blood; assay: Whole blood eosinophil shape change assay with ranitidine co-treatment (Example 1B); format: cell-based; conditions: FIG. 11
Procedure: In this example, starting materials were obtained as described in Example 1A. Human whole blood samples were used to study eosinophil shape change response. Human blood samples collected from healthy donors were treated with 3.8% tri-sodium citrate as anti-coagulator (or other anti-coagulators) and centrifuges at 300 rpm. The samples were used for experiments within 1 hour. […] The cell shape change was analyzed on a FACScan flow cytometer (Becton Dickinson, Mountain View, Calif.). Eosinophils were gated based on their high autofluorescence relative to neutrophils and shape change was monitored in forward scatter signals. Data were acquired for 1500 high-fluorescence eosinophil events. Results are expressed as the percentage increase in FSC compared to unstimulated cells.

human neutrophils = conditions: 1 μM, 10 min
Procedure: Human PMNL samples were used to study eosinophil shape change response. PMNL were prepared as described above and cells were resuspended in assay buffer (PBS containing 10 mM Ca^2+ and Mg^2+, 10 mM HEPES, 10 mM glucose, and 0.1% BSA, pH 7.2-7.4). Aliquots of cells (5×10^5 PMNL in 80 μl assay buffer) were pretreated with histamine receptor analogues (diphenhydramine, ranitidine, thioperamide, Compound A or H3 receptor antagonist) for 10 min at room temperature before addition of histamine or chemokines in 1.2-ml polypropylene cluster tubes (Costar, Cambridge, Mass.) in a final volume of 100 μl. […] The cell shape change was analyzed with the flow cytometer (Becton Dickinson, Mountain View, Calif.). […] Cell shape change was monitored in forward scatter signals. […] Samples after antibody staining were analyzed in flow cytometry.
The analysis of eosinophil cell shape change by flow cytometry, known as gated autofluorescence forward scatter (GAFS) assay, allows a quantitative measurement of cell shape change induced by chemoattractants (Sabroe et al., 1999, “Differential regulation of eosinophil chemokine signaling via CCR3 and non-CCR3 pathways,” J. Immunol., 162, 2946-2955). […]

[6] = cited from earlier work
human eosinophils [7] = conditions: cited from earlier work
[8] = read-out: IC50 in blocking 1 μM histamine-induced eosinophil shape change
[9] = histamine 0.1 uM + compound A 10 uM
[10] = histamine 1 uM + compound A 10 uM
[11] = histamine 10 uM + compound A 10 uM
[12] = after histamine treatment, FIG. 3A
[13] = histamine 0.1 uM alone, lower part
[14] = histamine 1 uM alone, lower part
[15] = histamine 10 uM alone, lower part

CN1CCN(C(=O)c2cc3cc(Cl)ccc3[nH]2)CC1 [Compound A, (5-chloro-1H-indol-2-yl)-(4-methyl-piperazin-1-yl)-methanone]
IC50 (human eosinophils [1]; [8]): 270 nM | effect on histamine-induced eosinophil shape change (human eosinophils [1]): blocked the histamine-induced eosinophil shape change completely | effect on histamine-induced up-regulation of CD11b/CD18 and CD54 expression (human eosinophils [2]): abolished | IC50 ([3]; Homo sapiens, Eosinophil): 86 nM | effect on histamine-induced eosinophil chemotaxis [3]: inhibited completely | GeoMean (FSC of eosinophils) ([4]; histamine 0.00 uM + Compound A 10 uM): 268.1 | % change (increase in FSC compared to unstimulated cells) ([4]; histamine 0 uM + compound A 10 uM): 0.0% | % change (increase in FSC compared to unstimulated cells) [4, 9]: 1.5% | GeoMean (FSC of eosinophils) [4, 9]: 272.1 | % change (increase in FSC compared to unstimulated cells) [4, 10]: 1.1% | GeoMean (FSC of eosinophils) [4, 10]: 270.9 | % change (increase in FSC compared to unstimulated cells) [4, 11]: −0.3% | GeoMean (FSC of eosinophils) [4, 11]: 267.3 | effect on eosinophil shape changes induced by histamine from 0.1 to 10 μM ([4]; whole blood, FIG. 8): blocked | effect on H4 receptor-dependent shape change (histamine + ranitidine) [5]: antagonized

Cc1ccn2cc(-c3ccc(OCCCN4CCCCC4)cc3)nc2c1 [Compound B, 7-methyl-2-[4-(3-piperidin-1-yl-propoxy)-phenyl]-imidazo[1,2-a]pyridine]
IC50 (human eosinophils [1]; read-out: IC50 in blocking 1 μM histamine-induced eosinophil shape change (ineffective up to)): > 30000 nM | effect on histamine-induced eosinophil shape change (human eosinophils [1]): did not show any inhibitory effects | effect on histamine-induced up-regulation of CD11b/CD18 and CD54 expression (human eosinophils [2]): ineffective | effect on histamine-induced eosinophil chemotaxis [3]: minimal

NC(=NCc1ccc(Cl)cc1)SCCCc1cnc[nH]1 [clobenpropit]
agonist effect on eosinophil shape change (human eosinophils [1]): partial shape change | agonist effect on eosinophil shape change in whole blood [4]: mimic histamine in inducing eosinophil shape change

CN(C)CCOC(c1ccccc1)c1ccccc1 [diphenhydramine]
effect on histamine-induced eosinophil shape change (human eosinophils [1]): did not show any inhibitory effects | effect on histamine-induced up-regulation of CD11b/CD18 and CD54 expression (human eosinophils [2]): ineffective | effect on histamine-induced eosinophil chemotaxis [3]: minimal

NCCc1c[nH]cn1 [histamine, 4-(2-amino-ethyl)imidazole]
cell shape change on eosinophils (human eosinophils [1]; 1 μM, 10 min): significant cell shape change | eosinophil shape change at 100 μM histamine (human eosinophils [1]; 100 μM): no shape change | earliest time at which eosinophil shape change is detected (human eosinophils [1]; [12]): 1 min | time of maximal eosinophil shape change (human eosinophils [1]; [12]): 5 min | time of return to the original cell shape (human eosinophils [1]; [12]): 40 min | combined effect on eosinophil shape change (human eosinophils [1]; histamine combined with MCP-3, sub-optimal concentrations): Partial additive effects | optimal concentration for maximal shape change on eosinophils (human eosinophils [1]; human PMNL, 10 min): ~1 µM | EC50 (human eosinophils [1]; human PMNL): 44 nM | expression of CD11a/CD18 (LFA-1) on eosinophils (human eosinophils [2]): not induced | optimal concentration for maximal up-regulation of CD11b/CD18 and CD54 (human eosinophils [2]; 10-minute stimulation): 10 µM | cell surface expression of CD11b/CD18 (Mac-1) and CD54 (ICAM-1) on eosinophils (human eosinophils [2]; 10 min, 37° C.): induced by histamine in a concentration-dependent manner | persistence of the increase in cell surface adhesion molecules (human eosinophils [2]; 60 minutes incubation): maintained | effect on eosinophil chemotaxis induced by eotaxin-2 and MCP-3 ([3]; 0.5 μM histamine): enhanced | EC50 ([3]; Homo sapiens, Eosinophil, Transwell): 83 nM | concentration for maximal chemotactic effect on eosinophils ([3]; Transwell): 1 µM | nature of the effect on eosinophil migration ([3]; disruption of concentration gradient): chemotactic but not chemokinetic | % change (increase in FSC compared to unstimulated cells) ([4]; histamine 0.01 uM, upper part): 6.1% | GeoMean (FSC of eosinophils) ([4]; histamine 0.01 uM, upper part): 239.8 | % change (increase in FSC compared to unstimulated cells) [4, 13]: 20.1% | GeoMean (FSC of eosinophils) [4, 13]: 327.7 | % change (increase in FSC compared to unstimulated cells) ([4]; histamine 0.1 uM, upper part): 20.0% | GeoMean (FSC of eosinophils) ([4]; histamine 0.1 uM, upper part): 271.3 | % change (increase in FSC compared to unstimulated cells) [4, 14]: 18.0% | GeoMean (FSC of eosinophils) [4, 14]: 321.9 | % change (increase in FSC compared to unstimulated cells) ([4]; histamine 1 uM, upper part): 16.4% | GeoMean (FSC of eosinophils) ([4]; histamine 1 uM, upper part): 263.3 | % change (increase in FSC compared to unstimulated cells) [4, 15]: 11.1% | GeoMean (FSC of eosinophils) [4, 15]: 303.3 | % change (increase in FSC compared to unstimulated cells) ([4]; histamine 10 uM, upper part): 17.2% | GeoMean (FSC of eosinophils) ([4]; histamine 10 uM, upper part): 265.0 | % change (increase in FSC compared to unstimulated cells) ([4]; histamine 100 uM, upper part): 30.8% | GeoMean (FSC of eosinophils) ([4]; histamine 100 uM, upper part): 295.8 | concentration at which a significant eosinophil shape change was detected ([4]; whole blood, FIG. 7): ~0.1 µM | cell shape change on neutrophils (human neutrophils): no effects | half-life in serum [6]: around 1 min

N=C(N)SCCc1cnc[nH]1 [imetit]
agonist effect on eosinophil shape change (human eosinophils [1]): partial shape change | agonist effect on eosinophil shape change in whole blood [4]: mimic histamine in inducing eosinophil shape change

S=C(NC1CCCCC1)N1CCC(c2cnc[nH]2)CC1 [thioperamide]
IC50 (human eosinophils [1]; [8]): 128 nM | effect on histamine-induced eosinophil shape change (human eosinophils [1]): blocked the histamine-induced eosinophil shape change completely | effect on histamine-induced up-regulation of CD11b/CD18 and CD54 expression (human eosinophils [2]): abolished | IC50 ([3]; Homo sapiens, Eosinophil): 519 nM | effect on histamine-induced eosinophil chemotaxis [3]: inhibited completely | effect on eosinophil chemotaxis toward histamine (human eosinophils [7]): blocked

MCP-3: chemokine purchased from R&D Systems
EC50 (human eosinophils [1]; human PMNL, chemokines): 0.202 nM | EC50 ([3]; Transwell): 43 nM

eotaxin: chemokine purchased from R&D Systems
EC50 (human eosinophils [1]; human PMNL, chemokines): 0.017 nM

B1: eotaxin-2: chemokine, positive control in the whole blood assay (protein, UniProt O00175 27-119, looked up)
C-C motif chemokine 24: VVIPSPCCMFFVSKRIPENRVVSYQLSSRSTCLKAGVIFTTKKGQQFCGDPKQEWVQRYMKNLDAKQKKASPRARAVAVKGPVQRYPGNQTTC
EC50 (human eosinophils [1]; human PMNL, chemokines): 0.021 nM | EC50 ([3]; Transwell): 1.9 nM | % change (increase in FSC compared to unstimulated cells) ([4]; Eotaxin2 0.01 nM): 3.5% | GeoMean (FSC of eosinophils) ([4]; Eotaxin2 0.01 nM): 233.4 | % change (increase in FSC compared to unstimulated cells) ([4]; Eotaxin2 0.1 nM): 1.0% | GeoMean (FSC of eosinophils) ([4]; Eotaxin2 0.1 nM): 227.7 | % change (increase in FSC compared to unstimulated cells) ([4]; Eotaxin2 1 nM): 26.3% | GeoMean (FSC of eosinophils) ([4]; Eotaxin2 1 nM): 284.7 | % change (increase in FSC compared to unstimulated cells) ([4]; Eotaxin2 10 nM): 53.4% | GeoMean (FSC of eosinophils) ([4]; Eotaxin2 10 nM): 346.0 | % change (increase in FSC compared to unstimulated cells) ([4]; Eotaxin2 100 nM): 19.4% | GeoMean (FSC of eosinophils) ([4]; Eotaxin2 100 nM): 269.3
